How the values were obtained:
Conditions in all cases: exposure time: 90 min
11235 [1] = donor line of iPSC-derived cardiomyocytes; experiment: POD (EC05) for decrease in beat frequency (negative chronotrope) vs vehicle; higher = less potent (higher point of departure)
Experimental: (§1)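 Human iPSC-derived cardiomyocytes from 16 donors were exposed for 90 min at 37 °C to each PFAS at 0.1, 1, 10 and 100 µM in 0.5% DMSO, 384-well plates. Kinetic Ca2+ flux (FLIPR) and Hoechst nuclei counts were normalised to vehicle wells and fitted with a hierarchical Bayesian Hill model to give donor-specific PODs: EC05 for beat-rate increase or decrease and for decay-to-rise ratio increase (QT proxy), EC95 for peak-frequency loss (asystole), EC10 for total cell number loss. 0.03 µM is the lower bound.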

1368 [2] = donor line of iPSC-derived cardiomyocytes; experiment: as above
Experimental: as §1

1531 = donor line of iPSC-derived cardiomyocytes; experiment: as above
Experimental: as §1

30171 [3] = donor line of iPSC-derived cardiomyocytes; experiment: as above
Experimental: as §1

1083 [4] = donor line of iPSC-derived cardiomyocytes; experiment: as above
Experimental: as §1

1434 [5] = donor line of iPSC-derived cardiomyocytes; experiment: as above
Experimental: as §1

1518 [6] = donor line of iPSC-derived cardiomyocytes; experiment: as above
Experimental: as §1

1118 [7] = donor line of iPSC-derived cardiomyocytes; experiment: as above
Experimental: as §1

11235 [8] = experiment: POD (EC10) for decrease in total cell number (cytotoxicity) vs vehicle; higher = less potent (higher point of departure)
Outline: (§2)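 Human iPSC-derived cardiomyocytes from 16 donors were cultured 14 days in 384-well plates, then exposed for 90 min at 37 °C to 0.1, 1, 10 and 100 µM (final, 0.5% DMSO). After the Ca2+ flux read, cells were stained 15 min with Hoechst 33342 (2.2 µg/mL) and MitoTracker Orange and imaged at 10× on an ImageXpress Micro Confocal. Nuclei were counted per field in MetaXpress. Donor-specific cytotoxicity points of departure came from hierarchical Bayesian Hill fits to vehicle-normalised counts, using a 10% decrease.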

1368 [9] = experiment: as above
Outline: as §2

1565 = donor line of iPSC-derived cardiomyocytes; experiment: as above
Outline: as §2

30171 [10] = experiment: as above
Outline: as §2

1535 = donor line of iPSC-derived cardiomyocytes; experiment: as above
Outline: as §2

1516 = donor line of iPSC-derived cardiomyocytes; experiment: as above
Outline: as §2

20084 = donor line of iPSC-derived cardiomyocytes; experiment: as above
Outline: as §2

1083 [11] = experiment: as above
Outline: as §2

1392 = donor line of iPSC-derived cardiomyocytes; experiment: as above
Outline: as §2

1434 [12] = experiment: as above
Outline: as §2

1518 [13] = experiment: as above
Outline: as §2

1118 [14] = experiment: as above
Outline: as §2

| SMILES | POD vs vehicle 11235 [1] [µM] | POD vs vehicle 1368 [2] [µM] | POD vs vehicle 1531 [µM] | POD vs vehicle 30171 [3] [µM] | POD vs vehicle 1083 [4] [µM] | POD vs vehicle 1434 [5] [µM] | POD vs vehicle 1518 [6] [µM] | POD vs vehicle 1118 [7] [µM] | POD vs vehicle 11235 [8] [µM] | POD vs vehicle 1368 [9] [µM] | POD vs vehicle 1565 [µM] | POD vs vehicle 30171 [10] [µM] | POD vs vehicle 1535 [µM] | POD vs vehicle 1516 [µM] | POD vs vehicle 20084 [µM] | POD vs vehicle 1083 [11] [µM] | POD vs vehicle 1392 [µM] | POD vs vehicle 1434 [12] [µM] | POD vs vehicle 1518 [13] [µM] | POD vs vehicle 1118 [14] [µM] |
| --- | --- | --- | --- | --- | --- | --- | --- | --- | --- | --- | --- | --- | --- | --- | --- | --- | --- | --- | --- | --- |
| NC(=O)C(F)(F)C(F)(F)C(F)(F)C(F)F | > 100 | > 100 | > 100 | > 100 | > 100 | > 100 | > 100 | > 100 | > 100 | > 100 | > 100 | 0.93 | > 100 | > 100 | > 100 | > 100 | > 100 | > 100 | > 100 | > 100 |
| OCC(O)CC(F)(F)C(F)(F)C(F)(F)C(F)(F)C(F)(F)C(F)(F)C(F)(F)C(F)(F)F (stereo not given) [1-(Perfluorofluorooctyl)propane-2,3-diol] | > 100 | > 100 | > 100 | > 100 | 24.4 | > 100 | > 100 | 0.258 | > 100 | > 100 | > 100 | > 100 | > 100 | > 100 | > 100 | > 100 | > 100 | > 100 | > 100 | > 100 |
| CC(O)C(F)(F)C(F)(F)F (stereo not given) [1-Pentafluoroethylethanol] | > 100 | > 100 | > 100 | > 100 | > 100 | > 100 | > 100 | > 100 | > 100 | > 100 | > 100 | > 100 | > 100 | > 100 | > 100 | > 100 | > 100 | > 100 | > 100 | > 100 |
| OCC(F)(F)C(F)(F)C(F)(F)C(F)F [1H,1H,5H-Perfluoropentanol] | > 100 | > 100 | 45.9 | > 100 | > 100 | > 100 | > 100 | 22.8 | > 100 | > 100 | > 100 | > 100 | > 100 | > 100 | > 100 | > 100 | > 100 | > 100 | > 100 | > 100 |
| O=S(=O)(OCC(F)(F)F)C(F)(F)C(F)(F)C(F)(F)C(F)(F)F [2,2,2-Trifluoroethyl_perfluorobutanesulfonate] | > 100 | > 100 | > 100 | 49.1 | > 100 | > 100 | > 100 | > 100 | > 100 | > 100 | > 100 | > 100 | > 100 | > 100 | > 100 | > 100 | > 100 | > 100 | > 100 | > 100 |
| O=C(O)C(F)(F)C(F)(F)C(F)F [2,2,3,3,4,4-Hexafluorobutanoic_acid] | > 100 | > 100 | > 100 | > 100 | > 100 | > 100 | > 100 | > 100 | > 100 | > 100 | > 100 | 0.125 | > 100 | > 100 | > 100 | > 100 | > 100 | > 100 | > 100 | > 100 |
| NC(O)(C(F)(F)F)C(F)(F)F [2-Aminohexafluoropropan-2-ol] | 7.51 | > 100 | > 100 | 36.5 | > 100 | 85.7 | > 100 | 16.9 | > 100 | > 100 | > 100 | > 100 | > 100 | > 100 | > 100 | > 100 | > 100 | > 100 | > 100 | > 100 |
| O=C(O)CCC(F)(F)C(F)(F)C(F)(F)C(F)(F)C(F)(F)F [2H,2H,3H,3H-Perfluorooctanoic_acid] | 16.9 | > 100 | 24.9 | 21.8 | 39.6 | 23.8 | > 100 | 20 | > 100 | > 100 | > 100 | > 100 | > 100 | > 100 | > 100 | > 100 | > 100 | > 100 | > 100 | > 100 |
| O=C(O)C=C(C(F)(F)F)C(F)(F)F [3,3-Bis(trifluoromethyl)-2-propenoic_acid] | > 100 | > 100 | > 100 | > 100 | > 100 | > 100 | > 100 | > 100 | > 100 | > 100 | > 100 | > 100 | > 100 | > 100 | > 100 | > 100 | > 100 | > 100 | > 100 | > 100 |

Source: the supplement of paper PMC11368000
